According to patent publication US9301961B2, “Autoimmune and inflammatory disorder therapy” (Katholieke Universiteit Leuven, K.U. Leuven R&D, priority 2011, dated 2016):

Target: T1, YSK4 (h) (Homo sapiens, UniProt Q56UN5)
T1 construct: purchased Millipore
T1 sequence (Q56UN5 1-1328): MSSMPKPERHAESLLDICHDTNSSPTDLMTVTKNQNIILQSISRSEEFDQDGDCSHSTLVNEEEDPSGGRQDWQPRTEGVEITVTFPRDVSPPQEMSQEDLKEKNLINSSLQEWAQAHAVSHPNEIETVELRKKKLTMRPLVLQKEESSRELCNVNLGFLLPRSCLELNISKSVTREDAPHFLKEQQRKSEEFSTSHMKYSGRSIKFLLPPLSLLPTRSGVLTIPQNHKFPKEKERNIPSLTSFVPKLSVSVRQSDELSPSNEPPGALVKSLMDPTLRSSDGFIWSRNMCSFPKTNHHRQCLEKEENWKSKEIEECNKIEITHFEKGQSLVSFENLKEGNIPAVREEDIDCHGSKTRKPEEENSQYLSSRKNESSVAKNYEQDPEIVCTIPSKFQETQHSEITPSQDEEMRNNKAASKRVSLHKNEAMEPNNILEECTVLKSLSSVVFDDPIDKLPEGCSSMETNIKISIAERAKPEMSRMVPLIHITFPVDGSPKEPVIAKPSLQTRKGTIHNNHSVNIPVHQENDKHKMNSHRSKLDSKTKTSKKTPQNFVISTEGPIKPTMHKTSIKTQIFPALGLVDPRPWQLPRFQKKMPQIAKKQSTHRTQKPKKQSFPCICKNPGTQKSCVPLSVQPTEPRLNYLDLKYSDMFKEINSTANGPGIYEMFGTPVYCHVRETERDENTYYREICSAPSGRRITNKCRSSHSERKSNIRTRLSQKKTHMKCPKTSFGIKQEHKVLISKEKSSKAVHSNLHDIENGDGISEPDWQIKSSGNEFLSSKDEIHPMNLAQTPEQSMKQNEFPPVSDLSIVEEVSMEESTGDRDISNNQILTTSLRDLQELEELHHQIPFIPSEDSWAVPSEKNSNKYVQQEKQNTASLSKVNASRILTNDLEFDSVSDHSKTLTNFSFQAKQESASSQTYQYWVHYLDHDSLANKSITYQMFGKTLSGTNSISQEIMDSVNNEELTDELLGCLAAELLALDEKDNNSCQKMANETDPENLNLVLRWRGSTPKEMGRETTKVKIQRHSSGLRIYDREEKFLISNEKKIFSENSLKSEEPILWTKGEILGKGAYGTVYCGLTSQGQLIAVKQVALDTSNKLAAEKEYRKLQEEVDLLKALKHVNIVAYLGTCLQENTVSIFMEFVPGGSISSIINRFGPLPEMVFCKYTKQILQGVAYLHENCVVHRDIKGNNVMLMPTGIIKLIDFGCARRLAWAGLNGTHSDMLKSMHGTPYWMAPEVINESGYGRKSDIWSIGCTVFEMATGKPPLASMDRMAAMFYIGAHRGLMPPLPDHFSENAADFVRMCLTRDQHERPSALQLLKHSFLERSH
Assay: Commercial kinase activity assay (Millipore, 33P-ATP filter)
Assay type: biochemical
Conditions: 10 μM test compound
Experimental: LOK (h) was incubated with 8 mM MOPS pH 7.0, 0.2 mM EDTA, 250 μM […], 10 mM MgAcetate and [γ-^33P-ATP] (specific activity approx. 500 cpm/pmol, concentration as required). The reaction was initiated by the addition of the MgATP mix. After incubation for 40 minutes at room temperature, the reaction was stopped by the addition of 3% phosphoric acid solution. 10 μL of the reaction was then spotted onto a P30 filtermat and washed three times for 5 minutes in 75 mM phosphoric acid and once in methanol prior to drying and scintillation counting. PI3K p110β/p85α (h) PI3K (p110β/p85α) (h) was incubated in assay buffer containing 10 μM phosphatidylinositol-4,5-bisphosphate and MgATP (concentration as required). The reaction was initiated by the addition of the MgATP mix. After incubation for 30 minutes at room temperature, the reaction was stopped by the addition of stop solution containing EDTA and biotinylated phosphatidylinositol-3,4,5-trisphosphate. Finally, detection buffer was added, which contains europium-labelled anti-GST monoclonal antibody, GST-tagged GRP1 PH domain and streptavidinallophycocyanin. The plate was then read in time-resolved fluorescence mode and the homogenous time-resolved fluorescence (HTRF®) signal determined according to the formula HTRF=10000×(Em665nm/Em620 nm). YSK4 (h) YSK4 (h) was incubated with 8 mM MOPS pH 7.0, 0.2 mM EDTA, 250 […], 10 mM MgAcetate and [γ-^33P-ATP] (specific activity approx. 500 cpm/pmol, concentration as required). The reaction was initiated by the addition of the MgATP mix. After incubation for 40 minutes at room temperature, the reaction was stopped by the addition of 3% phosphoric acid solution. 10 μL of the reaction was then spotted onto a P30 filtermat and washed three times for 5 minutes in 75 mM phosphoric acid and once in methanol prior to drying and scintillation counting. PI4KA (PI4K alpha) The 2× PI4KA (PI4K alpha)/PI Lipid Kinase Substrate mixture was prepared in 20 mM Tris, pH 7.5, 0.4% Triton X-100, 5 mM MgCl2, 0.5 mM EGTA. The final 10 μL Kinase Reaction consisted of 75-300 ng PI4KA (PI4K alpha) and 100 μM PI Lipid Kinase Substrate in 7.5 mM HEPES, 10 mM Tris, pH 7.5, 0.2% Triton X-100, 2.5 mM MgCl2, 0.25 mM EGTA. After the 1 hour Kinase Reaction incubation, 5 μL of Detection Mix consisting of a europium labeled anti-ADP antibody, an Alexa Fluor® 647 labeled ADP tracer, and EDTA (to stop the kinase reaction) was added to the assay well. ADP formed by the kinase reaction (in the absence of an inhibitor) displaced the Alexa Fluor® 647 labeled ADP tracer from the antibody, resulting in a decrease in the TR-FRET signal. […] PI4KB (PI4K beta) The 2× PI4KB (PI4K beta)/PI Lipid Kinase Substrate mixture was prepared in 50 mM HEPES pH 7.5, 0.1% CHAPS, 1 mM EGTA, 4 mM MgCl2. […]

Q: For Nc1nc(N2CCN(C(=O)COc3ccc(Cl)cc3)CC2)c2nc(-c3cccnc3)sc2n1 [formula (1), 5-amino-7-[4-(4-chlorophenoxyacetyl)piperazin-1-yl]-2-(pyridin-3-yl)thiazolo[5,4-d]pyrimidine], which Kinase activity is on record?
A: 108 percentage of control
